Measured values published in ChEMBL document CHEMBL3045446, “In vitro antimicrobial and antimycobacterial activity of some chalcones and their derivatives” (2013).
Values after ≈ are worked out from the molar mass of the structure shown.

Columns and labels:
Assay type in all cases: functional
Escherichia coli [1] = assay: Antimicrobial activity against Escherichia coli MTCC 739 assessed as growth inhibition after 24 hr by agar streak dilution method; details: MTCC 739, 24 h
Aspergillus fumigatus [2] = assay: Antimicrobial activity against Aspergillus fumigatus MTCC 343 assessed as diameter of growth inhibition zone after 48 hr
Aspergillus fumigatus [3] = assay: Antimicrobial activity against Aspergillus fumigatus MTCC 343 assessed as growth inhibition after 48 hr by agar streak dilution method; details: MTCC 343, 48 h
Pseudomonas aeruginosa [4] = assay: Antimicrobial activity against Pseudomonas aeruginosa MTCC 741 assessed as diameter of growth inhibition zone after 24 hr
Proteus vulgaris [5] = assay: Antimicrobial activity against Proteus vulgaris MTCC 1771 assessed as diameter of growth inhibition zone after 24 hr
Aspergillus clavatus [6] = assay: Antimicrobial activity against Aspergillus clavatus MTCC 1323 assessed as diameter of growth inhibition zone after 48 hr
Klebsiella pneumoniae [7] = assay: Antimicrobial activity against Klebsiella pneumoniae MTCC 109 assessed as diameter of growth inhibition zone after 24 hr
Escherichia coli [8] = assay: Antimicrobial activity against Escherichia coli MTCC 739 assessed as diameter of growth inhibition zone after 24 hr
Aspergillus niger [9] = assay: Antimicrobial activity against Aspergillus niger MTCC 282 assessed as growth inhibition after 48 hr by agar streak dilution method; details: MTCC 282, 48 h
Staphylococcus aureus [10] = assay: Antimicrobial activity against Staphylococcus aureus MTCC 96 assessed as growth inhibition after 24 hr by agar streak dilution method; details: MTCC 96, 24 h
Bacillus cereus [11] = assay: Antimicrobial activity against Bacillus cereus MTCC 430 assessed as growth inhibition after 24 hr by agar streak dilution method; details: MTCC 430, 24 h
Shigella flexneri [12] = assay: Antimicrobial activity against Shigella flexneri MTCC1457 assessed as diameter of growth inhibition zone after 24 hr
Salmonella typhi [13] = assay: Antimicrobial activity against Salmonella enterica subsp. enterica serovar Typhi MTCC 733 assessed as growth inhibition after 24 hr by agar streak dilution method; details: MTCC 733, 24 h
[14] = system: Mycobacterium tuberculosis; assay: Antituberculosis activity against Mycobacterium tuberculosis H37Rv assessed as growth inhibition after 12 to 28 days by L-J MIC method; details: for MIC: Mycobacterium tuberculosis, H37Rv
Candida albicans [15] = assay: Antimicrobial activity against Candida albicans MTCC 183 assessed as growth inhibition after 48 hr by agar streak dilution method; details: MTCC 183, 48 h
Proteus vulgaris [16] = assay: Antimicrobial activity against Proteus vulgaris MTCC 1771 assessed as growth inhibition after 24 hr by agar streak dilution method; details: MTCC 1771, 24 h
Candida albicans [17] = assay: Antimicrobial activity against Candida albicans MTCC 183 assessed as diameter of growth inhibition zone after 48 hr
Klebsiella pneumoniae [18] = assay: Antimicrobial activity against Klebsiella pneumoniae MTCC 109 assessed as growth inhibition after 24 hr by agar streak dilution method; details: MTCC 109, 24 h
Salmonella typhi [19] = assay: Antimicrobial activity against Salmonella enterica subsp. enterica serovar Typhi MTCC 733 assessed as diameter of growth inhibition zone after 24 hr
Pseudomonas aeruginosa [20] = assay: Antimicrobial activity against Pseudomonas aeruginosa MTCC 741 assessed as growth inhibition after 24 hr by agar streak dilution method; details: MTCC 741, 24 h
Bacillus cereus [21] = assay: Antimicrobial activity against Bacillus cereus MTCC 430 assessed as diameter of growth inhibition zone after 24 hr
Shigella flexneri [22] = assay: Antimicrobial activity against Shigella flexneri MTCC1457 assessed as growth inhibition after 24 hr by agar streak dilution method; details: MTCC1457, 24 h
Aspergillus niger [23] = assay: Antimicrobial activity against Aspergillus niger MTCC 282 assessed as diameter of growth inhibition zone after 48 hr
Aspergillus clavatus [24] = assay: Antimicrobial activity against Aspergillus clavatus MTCC 1323 assessed as growth inhibition after 48 hr by agar streak dilution method; details: MTCC 1323, 48 h
Staphylococcus aureus [25] = assay: Antimicrobial activity against Staphylococcus aureus MTCC 96 assessed as diameter of growth inhibition zone after 24 hr

| SMILES | MIC (Escherichia coli [1]) [µg/mL] | diameter of the inhibition zone (DIZ) (Aspergillus fumigatus [2]) [mm] | MIC (Aspergillus fumigatus [3]) [µg/mL] | diameter of the inhibition zone (DIZ) (Pseudomonas aeruginosa [4]) [mm] | diameter of the inhibition zone (DIZ) (Proteus vulgaris [5]) [mm] | diameter of the inhibition zone (DIZ) (Aspergillus clavatus [6]) [mm] | diameter of the inhibition zone (DIZ) (Klebsiella pneumoniae [7]) [mm] | diameter of the inhibition zone (DIZ) (Escherichia coli [8]) [mm] | MIC (Aspergillus niger [9]) [µg/mL] | MIC (Staphylococcus aureus [10]) [µg/mL] | MIC (Bacillus cereus [11]) [µg/mL] | diameter of the inhibition zone (DIZ) (Shigella flexneri [12]) [mm] | MIC (Salmonella typhi [13]) [µg/mL] | growth inhibition (GI) [14] [%] | MIC [14] [µg/mL] | MIC (Candida albicans [15]) [µg/mL] | MIC (Proteus vulgaris [16]) [µg/mL] | diameter of the inhibition zone (DIZ) (Candida albicans [17]) [mm] | MIC (Klebsiella pneumoniae [18]) [µg/mL] | diameter of the inhibition zone (DIZ) (Salmonella typhi [19]) [mm] | further results |
| --- | --- | --- | --- | --- | --- | --- | --- | --- | --- | --- | --- | --- | --- | --- | --- | --- | --- | --- | --- | --- | --- |
| N#Cc1c(-c2ccccc2O)cc(-c2ccc(Nc3cc(=O)oc4ccccc34)cc2)nc1N | 12.5 (≈ 28 µM) | 25 | 6.25 (≈ 14 µM) | 24 | 22 | 27 | 28 | 24 | 12.5 (≈ 28 µM) | 12.5 (≈ 28 µM) | 12.5 (≈ 28 µM) | 21 | 6.25 (≈ 14 µM) | 97 | 25 (≈ 56 µM) | 25 (≈ 56 µM) | 12.5 (≈ 28 µM) | 24 | 3.12 (≈ 6.99 µM) | 25 | MIC (Pseudomonas aeruginosa [20]): 12.5 µg/mL (≈ 28 µM); diameter of the inhibition zone (DIZ) (Bacillus cereus [21]): 22 mm; MIC (Shigella flexneri [22]): 12.5 µg/mL (≈ 28 µM); diameter of the inhibition zone (DIZ) (Aspergillus niger [23]): 25 mm; MIC (Aspergillus clavatus [24]): 6.25 µg/mL (≈ 14 µM); diameter of the inhibition zone (DIZ) (Staphylococcus aureus [25]): 21 mm |
| Nc1nc(-c2ccccc2)cc(-c2ccc(Nc3cc(=O)oc4ccccc34)cc2)n1 | 100 (≈ 246 µM) | 19 | 50 (≈ 123 µM) | 12 | 15 | 21 | 15 | 14 | 50 (≈ 123 µM) | 100 (≈ 246 µM) | 100 (≈ 246 µM) | 14 | 50 (≈ 123 µM) | 95 | 500 (≈ 1230 µM) | 50 (≈ 123 µM) | 100 (≈ 246 µM) | 17 | 100 (≈ 246 µM) | 17 | MIC (Pseudomonas aeruginosa [20]): 100 µg/mL (≈ 246 µM); diameter of the inhibition zone (DIZ) (Bacillus cereus [21]): 15 mm; MIC (Shigella flexneri [22]): 100 µg/mL (≈ 246 µM); diameter of the inhibition zone (DIZ) (Aspergillus niger [23]): 17 mm; MIC (Aspergillus clavatus [24]): 25 µg/mL (≈ 61.5 µM); diameter of the inhibition zone (DIZ) (Staphylococcus aureus [25]): 13 mm |
| N#Cc1c(-c2ccc(F)cc2)cc(-c2ccc(Nc3cc(=O)oc4ccccc34)cc2)nc1N | 3.12 (≈ 6.96 µM) | 28 | 3.12 (≈ 6.96 µM) | 29 | 29 | 28 | 28 | 27 | 12.5 (≈ 27.9 µM) | 6.25 (≈ 13.9 µM) | 3.12 (≈ 6.96 µM) | 24 | 6.25 (≈ 13.9 µM) | 97 | 50 (≈ 111 µM) | 12.5 (≈ 27.9 µM) | 3.12 (≈ 6.96 µM) | 22 | 3.12 (≈ 6.96 µM) | 26 | MIC (Pseudomonas aeruginosa [20]): 3.12 µg/mL (≈ 6.96 µM); diameter of the inhibition zone (DIZ) (Bacillus cereus [21]): 28 mm; MIC (Shigella flexneri [22]): 12.5 µg/mL (≈ 27.9 µM); diameter of the inhibition zone (DIZ) (Aspergillus niger [23]): 23 mm; MIC (Aspergillus clavatus [24]): 6.25 µg/mL (≈ 13.9 µM); diameter of the inhibition zone (DIZ) (Staphylococcus aureus [25]): 25 mm |
| COc1ccc(C2CC(c3ccc(Nc4cc(=O)oc5ccccc45)cc3)=NN2C(C)=O)cc1OC (stereo not drawn) | 25 (≈ 51.7 µM) | 19 | 50 (≈ 103 µM) | 20 | 20 | 20 | 22 | 21 | 25 (≈ 51.7 µM) | 25 (≈ 51.7 µM) | 50 (≈ 103 µM) | 23 | 25 (≈ 51.7 µM) | 98 | 100 (≈ 207 µM) | 25 (≈ 51.7 µM) | 50 (≈ 103 µM) | 22 | 25 (≈ 51.7 µM) | 21 | MIC (Pseudomonas aeruginosa [20]): 50 µg/mL (≈ 103 µM); diameter of the inhibition zone (DIZ) (Bacillus cereus [21]): 18 mm; MIC (Shigella flexneri [22]): 12.5 µg/mL (≈ 25.9 µM); diameter of the inhibition zone (DIZ) (Aspergillus niger [23]): 23 mm; MIC (Aspergillus clavatus [24]): 50 µg/mL (≈ 103 µM); diameter of the inhibition zone (DIZ) (Staphylococcus aureus [25]): 20 mm |
| Cc1ccc(-c2cc(-c3ccc(Nc4cc(=O)oc5ccccc45)cc3)nc(N)n2)cc1 | 100 (≈ 238 µM) | 18 | 50 (≈ 119 µM) | 19 | 21 | 16 | 16 | 15 | 25 (≈ 59.5 µM) | 50 (≈ 119 µM) | 50 (≈ 119 µM) | 22 | 50 (≈ 119 µM) | 98 | 200 (≈ 476 µM) | 50 (≈ 119 µM) | 25 (≈ 59.5 µM) | 16 | 100 (≈ 238 µM) | 18 | MIC (Pseudomonas aeruginosa [20]): 50 µg/mL (≈ 119 µM); diameter of the inhibition zone (DIZ) (Bacillus cereus [21]): 19 mm; MIC (Shigella flexneri [22]): 25 µg/mL (≈ 59.5 µM); diameter of the inhibition zone (DIZ) (Aspergillus niger [23]): 21 mm; MIC (Aspergillus clavatus [24]): 100 µg/mL (≈ 238 µM); diameter of the inhibition zone (DIZ) (Staphylococcus aureus [25]): 18 mm |
| COc1ccc(/C=C/C(=O)c2ccc(Nc3cc(=O)oc4ccccc34)cc2)cc1 | 50 (≈ 126 µM) | 16 | 100 (≈ 252 µM) | 16 | 18 | 18 | 16 | 18 | 50 (≈ 126 µM) | 100 (≈ 252 µM) | 100 (≈ 252 µM) | 15 | 100 (≈ 252 µM) | 96 | 250 (≈ 629 µM) | 100 (≈ 252 µM) | 50 (≈ 126 µM) | 16 | 100 (≈ 252 µM) | 14 | MIC (Pseudomonas aeruginosa [20]): 100 µg/mL (≈ 252 µM); diameter of the inhibition zone (DIZ) (Bacillus cereus [21]): 13 mm; MIC (Shigella flexneri [22]): 100 µg/mL (≈ 252 µM); diameter of the inhibition zone (DIZ) (Aspergillus niger [23]): 20 mm; MIC (Aspergillus clavatus [24]): 50 µg/mL (≈ 126 µM); diameter of the inhibition zone (DIZ) (Staphylococcus aureus [25]): 15 mm |
| N#Cc1c(-c2ccc([N+](=O)[O-])cc2)cc(-c2ccc(Nc3cc(=O)oc4ccccc34)cc2)nc1N | 25 (≈ 52.6 µM) | 20 | 25 (≈ 52.6 µM) | 20 | 19 | 22 | 19 | 22 | 25 (≈ 52.6 µM) | 50 (≈ 105 µM) | 25 (≈ 52.6 µM) | 20 | 12.5 (≈ 26.3 µM) | 96 | 250 (≈ 526 µM) | 12.5 (≈ 26.3 µM) | 50 (≈ 105 µM) | 23 | 25 (≈ 52.6 µM) | 23 | MIC (Pseudomonas aeruginosa [20]): 50 µg/mL (≈ 105 µM); diameter of the inhibition zone (DIZ) (Bacillus cereus [21]): 22 mm; MIC (Shigella flexneri [22]): 50 µg/mL (≈ 105 µM); diameter of the inhibition zone (DIZ) (Aspergillus niger [23]): 23 mm; MIC (Aspergillus clavatus [24]): 25 µg/mL (≈ 52.6 µM); diameter of the inhibition zone (DIZ) (Staphylococcus aureus [25]): 17 mm |
| CC(=O)N1N=C(c2ccc(Nc3cc(=O)oc4ccccc34)cc2)CC1c1ccc(F)cc1 (stereo not drawn) | 50 (≈ 113 µM) | 22 | 25 (≈ 56.6 µM) | 17 | 21 | 20 | 23 | 20 | 25 (≈ 56.6 µM) | 12.5 (≈ 28.3 µM) | 12.5 (≈ 28.3 µM) | 20 | 50 (≈ 113 µM) | 98 | 100 (≈ 227 µM) | 50 (≈ 113 µM) | 25 (≈ 56.6 µM) | 16 | 12.5 (≈ 28.3 µM) | 18 | MIC (Pseudomonas aeruginosa [20]): 50 µg/mL (≈ 113 µM); diameter of the inhibition zone (DIZ) (Bacillus cereus [21]): 22 mm; MIC (Shigella flexneri [22]): 25 µg/mL (≈ 56.6 µM); diameter of the inhibition zone (DIZ) (Aspergillus niger [23]): 20 mm; MIC (Aspergillus clavatus [24]): 50 µg/mL (≈ 113 µM); diameter of the inhibition zone (DIZ) (Staphylococcus aureus [25]): 23 mm |
